Measured values published in ChEMBL document CHEMBL3596174, “Investigation on the sucrose binding pocket of HIV-1 Integrase by molecular dynamics and synergy experiments” (Bioorg Med Chem Lett, 2015).

Assays:
[1] = target: Human immunodeficiency virus type 1 integrase (Human immunodeficiency virus 1, UniProt Q7ZJM1); assay: Binding affinity to recombinant HIV-1 integrase catalytic core domain expressed in Escherichia coli assessed as inhibition of interaction with […] by HTRF assay
[2] = target: Human immunodeficiency virus type 1 integrase (Human immunodeficiency virus 1) (UniProt Q7ZJM1); assay: Inhibition of His-tagged HIV-1 integrase-mediated 3' processing and strand transfer reactions using 5'-ACAGGCCTAGCACGCGTCG-Biotin-3' annealed with 5'-CGACGCGTGGTAGGCCTGT-Biotin3'/5'-Cy5-ATGTGGAAAATCTCTAGCAGT-3' annealed with 5'-Cy5-TGAGCTCGAGATTTTCCACAT-3' as donar/acceptor DNA substrate preincubated for 1 hr followed by DNA and LEDGF/p75 addition measured after 90 mins by HTRF assay
Chain of Human immunodeficiency virus type 1 integrase (Human immunodeficiency virus 1) (Q7ZJM1 as listed by the source): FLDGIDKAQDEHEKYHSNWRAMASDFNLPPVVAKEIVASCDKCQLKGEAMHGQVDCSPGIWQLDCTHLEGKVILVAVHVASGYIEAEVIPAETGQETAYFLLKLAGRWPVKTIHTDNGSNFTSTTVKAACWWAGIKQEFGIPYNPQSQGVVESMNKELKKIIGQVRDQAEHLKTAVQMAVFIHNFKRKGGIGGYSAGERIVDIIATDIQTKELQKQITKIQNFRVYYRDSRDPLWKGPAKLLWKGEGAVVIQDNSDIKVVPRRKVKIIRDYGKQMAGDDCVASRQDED

Chain of Human immunodeficiency virus type 1 integrase (Q7ZJM1 whole entry, the tested form may be a part): as the sequence (Q7ZJM1 as listed by the source) above

Row | Structure (SMILES) | IC50 [1] [nM] | inhibition [2]
1 | Cc1nc2ccc(Br)cc2c(-c2ccc(Cl)cc2)c1[C@H](OC(C)(C)C)C(=O)O | 60 | 
2 | CCC[C@H](C(=O)O)c1c(C)nc2ccc(Cl)cc2c1-c1ccccc1 |  | Dose-dependent effect
3 | Cc1nc2ccccc2c(-c2cc(F)c3c(c2C)CCCO3)c1[C@H](OC(C)(C)C)C(=O)O | 18 | 
